Earlier results on one substance are cited in patent US20190223486A1, “CATECHIN ABSORPTION ENHANCER FOR ENHANCING CATECHIN ABSORPTION IN SMALL INTESTINAL EPITHELIAL CELLS” (AMOREPACIFIC CORPORATION, priority 2016, published 2019).

For the data set the following is noted: in vivo, po.

Turning to catechin, the “share of a catechin intake absorbed by the intestines” value is recorded as “less than 2%”.
